From patent publication US20120245137A1 (Zalicus Pharmaceuticals Ltd., priority 2009, published 2012)

Assays:
Assay type in all cases: cell-based
[1] = biological target: N-type calcium channel subunits (α1B, α2δ, and β3a) (Homo sapiens, UniProt Q00975); assay: Block of Cav2.2 channel, whole cell voltage clamp, manual and PatchXpress; conditions: Table 5; table follows Assay Example 3 (whole cell voltage clamp / PatchXpress); assay not given
In short: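 Percent block taken as current amplitude ratio with versus without compound, applied in rising doses; IC50 fitted where one cell received multiple doses. Protocol: 50 ms pulses to +20 mV at 0.067 Hz from […] or −90 mV holding; P/n leak subtraction, no junction-potential correction; manual and PatchXpress recordings.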

[2] = biological target: human α1H T-type channels (Homo sapiens, UniProt O95180); assay: T-type calcium channel block, whole cell patch clamp, α1H; conditions: HEK cells stably expressing human α1H; mainly non-inactivated protocol; values above 10,000 nM represented as 10000
In short: (§1)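 Using standard patch-clamp, T-type currents were recorded from stably transfected human α1G or α1H HEK 293 cells. Separate non-inactivating and inactivation voltage protocols distinguished resting from voltage-dependent block by locally applied compound in 0.1-0.01% DMSO.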

[3] = biological target: human α1G T-type channels (Homo sapiens, UniProt O43497); assay: T-type calcium channel block, whole cell patch clamp, α1G; conditions: HEK cells stably expressing human α1G; mainly non-inactivated protocol; values above 10,000 nM represented as 10000
In short: as §1

Sequence of human α1H T-type channels (O95180 whole entry): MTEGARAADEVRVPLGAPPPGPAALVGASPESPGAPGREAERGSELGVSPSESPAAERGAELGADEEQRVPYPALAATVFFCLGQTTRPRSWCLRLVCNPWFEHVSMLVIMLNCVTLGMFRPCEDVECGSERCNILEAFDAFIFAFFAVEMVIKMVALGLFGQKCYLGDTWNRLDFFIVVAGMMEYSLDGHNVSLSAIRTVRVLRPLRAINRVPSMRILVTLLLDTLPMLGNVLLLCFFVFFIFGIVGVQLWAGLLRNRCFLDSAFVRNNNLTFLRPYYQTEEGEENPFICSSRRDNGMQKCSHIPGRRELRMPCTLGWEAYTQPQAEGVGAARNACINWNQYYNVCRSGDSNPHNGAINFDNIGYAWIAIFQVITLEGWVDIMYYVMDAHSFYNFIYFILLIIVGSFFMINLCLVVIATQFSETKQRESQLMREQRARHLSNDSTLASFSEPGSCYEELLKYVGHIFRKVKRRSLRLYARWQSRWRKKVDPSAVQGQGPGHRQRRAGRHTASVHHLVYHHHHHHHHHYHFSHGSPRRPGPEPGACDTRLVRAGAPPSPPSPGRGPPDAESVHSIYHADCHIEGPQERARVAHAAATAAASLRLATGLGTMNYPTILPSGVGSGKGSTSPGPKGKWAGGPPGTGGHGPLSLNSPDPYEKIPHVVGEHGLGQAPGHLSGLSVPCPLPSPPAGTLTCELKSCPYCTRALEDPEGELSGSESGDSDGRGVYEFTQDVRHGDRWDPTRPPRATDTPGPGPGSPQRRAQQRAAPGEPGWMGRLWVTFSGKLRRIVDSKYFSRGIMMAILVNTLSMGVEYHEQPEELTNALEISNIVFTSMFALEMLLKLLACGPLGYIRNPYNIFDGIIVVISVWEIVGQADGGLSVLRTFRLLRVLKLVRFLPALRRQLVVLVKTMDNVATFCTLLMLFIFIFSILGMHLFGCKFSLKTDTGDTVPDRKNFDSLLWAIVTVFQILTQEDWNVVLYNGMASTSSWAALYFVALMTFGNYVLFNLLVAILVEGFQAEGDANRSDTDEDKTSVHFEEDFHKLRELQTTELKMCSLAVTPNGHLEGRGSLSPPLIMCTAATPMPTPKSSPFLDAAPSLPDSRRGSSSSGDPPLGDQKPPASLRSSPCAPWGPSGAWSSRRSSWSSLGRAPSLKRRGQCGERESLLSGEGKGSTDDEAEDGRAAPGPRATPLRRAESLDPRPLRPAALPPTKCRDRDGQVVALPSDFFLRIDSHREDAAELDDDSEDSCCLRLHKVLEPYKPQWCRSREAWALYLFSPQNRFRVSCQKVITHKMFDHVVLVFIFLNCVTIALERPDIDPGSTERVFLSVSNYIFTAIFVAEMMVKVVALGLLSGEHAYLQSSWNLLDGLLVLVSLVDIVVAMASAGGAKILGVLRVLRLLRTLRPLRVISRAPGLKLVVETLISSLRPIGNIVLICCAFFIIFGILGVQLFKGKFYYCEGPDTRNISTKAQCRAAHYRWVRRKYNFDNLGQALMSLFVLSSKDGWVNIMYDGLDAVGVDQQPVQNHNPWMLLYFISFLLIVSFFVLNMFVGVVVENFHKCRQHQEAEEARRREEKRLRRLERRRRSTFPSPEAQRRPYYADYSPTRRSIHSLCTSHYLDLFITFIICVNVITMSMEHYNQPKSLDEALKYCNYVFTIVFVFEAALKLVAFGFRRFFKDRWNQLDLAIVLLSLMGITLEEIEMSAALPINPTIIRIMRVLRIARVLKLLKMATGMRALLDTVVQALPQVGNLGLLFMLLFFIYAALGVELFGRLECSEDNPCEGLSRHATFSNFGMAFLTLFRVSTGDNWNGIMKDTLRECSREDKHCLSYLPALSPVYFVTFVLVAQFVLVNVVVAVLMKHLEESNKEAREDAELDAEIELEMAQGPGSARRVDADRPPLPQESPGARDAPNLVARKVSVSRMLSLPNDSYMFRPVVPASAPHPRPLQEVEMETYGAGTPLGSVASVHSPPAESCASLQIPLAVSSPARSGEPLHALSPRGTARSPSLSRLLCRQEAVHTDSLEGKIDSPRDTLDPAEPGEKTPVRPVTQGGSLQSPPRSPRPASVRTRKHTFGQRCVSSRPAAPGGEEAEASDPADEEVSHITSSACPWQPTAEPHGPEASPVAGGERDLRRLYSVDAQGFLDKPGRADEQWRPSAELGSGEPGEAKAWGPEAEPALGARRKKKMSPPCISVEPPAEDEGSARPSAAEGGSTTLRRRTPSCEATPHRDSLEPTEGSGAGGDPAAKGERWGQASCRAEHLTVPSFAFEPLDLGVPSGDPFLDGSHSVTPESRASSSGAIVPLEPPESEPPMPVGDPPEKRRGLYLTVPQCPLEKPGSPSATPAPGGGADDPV
Sequence of human α1G T-type channels (O43497 whole entry): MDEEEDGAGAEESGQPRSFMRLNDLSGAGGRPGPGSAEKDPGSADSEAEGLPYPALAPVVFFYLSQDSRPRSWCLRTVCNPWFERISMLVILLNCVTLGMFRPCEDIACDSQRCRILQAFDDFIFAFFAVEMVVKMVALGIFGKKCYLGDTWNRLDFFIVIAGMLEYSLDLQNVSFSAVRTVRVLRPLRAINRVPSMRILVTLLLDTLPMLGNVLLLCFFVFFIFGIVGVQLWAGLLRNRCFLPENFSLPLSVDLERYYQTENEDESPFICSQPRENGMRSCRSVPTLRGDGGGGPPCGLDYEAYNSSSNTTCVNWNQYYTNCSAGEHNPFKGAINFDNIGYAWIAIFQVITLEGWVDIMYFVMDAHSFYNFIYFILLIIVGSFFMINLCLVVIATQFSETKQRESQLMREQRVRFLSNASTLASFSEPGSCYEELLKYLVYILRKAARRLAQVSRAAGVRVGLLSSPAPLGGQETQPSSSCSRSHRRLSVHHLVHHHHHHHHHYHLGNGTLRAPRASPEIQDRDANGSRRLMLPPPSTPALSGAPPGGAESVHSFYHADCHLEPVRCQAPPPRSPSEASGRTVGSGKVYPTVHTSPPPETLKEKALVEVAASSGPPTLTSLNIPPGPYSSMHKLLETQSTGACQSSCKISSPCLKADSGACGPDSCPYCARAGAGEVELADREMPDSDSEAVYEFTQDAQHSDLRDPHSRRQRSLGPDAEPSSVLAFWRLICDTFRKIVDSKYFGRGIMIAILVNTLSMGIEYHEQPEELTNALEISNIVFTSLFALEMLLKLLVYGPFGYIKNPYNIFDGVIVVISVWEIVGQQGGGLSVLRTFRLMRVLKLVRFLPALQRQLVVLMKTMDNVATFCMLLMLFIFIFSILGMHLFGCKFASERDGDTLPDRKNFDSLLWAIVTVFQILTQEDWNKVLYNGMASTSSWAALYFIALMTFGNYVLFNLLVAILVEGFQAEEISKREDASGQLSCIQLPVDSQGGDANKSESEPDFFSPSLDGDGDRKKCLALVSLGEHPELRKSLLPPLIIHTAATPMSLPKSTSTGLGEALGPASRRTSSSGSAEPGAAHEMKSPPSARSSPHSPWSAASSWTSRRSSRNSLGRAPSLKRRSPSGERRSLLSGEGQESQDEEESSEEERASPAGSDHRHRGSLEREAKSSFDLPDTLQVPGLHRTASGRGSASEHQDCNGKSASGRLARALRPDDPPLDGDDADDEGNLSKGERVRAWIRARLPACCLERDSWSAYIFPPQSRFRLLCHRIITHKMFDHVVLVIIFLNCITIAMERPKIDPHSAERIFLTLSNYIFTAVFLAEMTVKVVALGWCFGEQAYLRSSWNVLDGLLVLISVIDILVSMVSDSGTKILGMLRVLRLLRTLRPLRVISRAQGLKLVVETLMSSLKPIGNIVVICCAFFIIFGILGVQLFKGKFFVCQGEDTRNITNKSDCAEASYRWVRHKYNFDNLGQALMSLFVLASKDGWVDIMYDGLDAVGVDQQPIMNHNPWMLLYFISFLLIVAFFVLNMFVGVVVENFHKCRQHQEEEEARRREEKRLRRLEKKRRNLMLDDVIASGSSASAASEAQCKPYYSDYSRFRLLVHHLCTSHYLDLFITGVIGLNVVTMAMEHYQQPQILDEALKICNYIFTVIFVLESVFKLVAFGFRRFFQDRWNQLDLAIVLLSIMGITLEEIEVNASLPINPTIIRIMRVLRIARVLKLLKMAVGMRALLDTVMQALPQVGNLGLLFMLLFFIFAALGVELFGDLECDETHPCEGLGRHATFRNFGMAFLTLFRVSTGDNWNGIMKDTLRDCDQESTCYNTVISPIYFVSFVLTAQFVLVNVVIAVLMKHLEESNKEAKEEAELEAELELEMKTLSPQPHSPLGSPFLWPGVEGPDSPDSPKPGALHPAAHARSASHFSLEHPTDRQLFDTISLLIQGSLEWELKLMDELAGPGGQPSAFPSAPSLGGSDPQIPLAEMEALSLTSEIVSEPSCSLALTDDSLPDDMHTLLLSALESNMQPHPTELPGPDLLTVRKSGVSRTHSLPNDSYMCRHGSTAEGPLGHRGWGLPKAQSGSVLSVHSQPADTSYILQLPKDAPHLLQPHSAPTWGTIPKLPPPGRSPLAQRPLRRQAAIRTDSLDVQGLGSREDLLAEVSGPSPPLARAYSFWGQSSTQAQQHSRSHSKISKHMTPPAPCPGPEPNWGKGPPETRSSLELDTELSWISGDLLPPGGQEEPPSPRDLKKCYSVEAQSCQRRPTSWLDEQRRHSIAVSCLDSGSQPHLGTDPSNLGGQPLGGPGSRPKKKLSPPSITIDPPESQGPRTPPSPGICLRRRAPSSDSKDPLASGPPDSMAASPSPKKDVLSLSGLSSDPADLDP

Row | SMILES | IC50 [1] [nM] | IC50 [2] [µM] | IC50 [3] [µM]
1 | CS(=O)(=O)c1nc(C(F)(F)F)ccc1C(=O)N[C@H]1CC[C@@](F)(S(=O)(=O)c2cccc(OC(F)(F)F)c2)CC1 [Compound 257] | 680 | 9.02 | 6.9
2 | CS(=O)(=O)c1cc(C(F)(F)F)cnc1C(=O)N[C@H]1CC[C@@](F)(S(=O)(=O)c2cccc(C(F)(F)F)c2)CC1 [Compound 259, N-((1S,4S)-4-fluoro-4-(3-(trifluoromethyl)phenylsulfonyl)cyclohexyl)-3-(methylsulfonyl)-5-(trifluoromethyl)picolinamide] | 500 | 9.62 | 6.11
3 | CS(=O)(=O)c1nc(C(F)(F)F)ccc1C(=O)N[C@H]1CC[C@@](F)(S(=O)(=O)c2cccc(C(F)(F)F)c2)CC1 [Compound 260] | 1080 | 3.65 | 2.3
4 | O=C(N[C@H]1CC[C@@](F)(S(=O)(=O)c2cccc(C(F)(F)F)c2)CC1)c1cnc(C(F)(F)F)nc1 [Compound 261, N-((1S,4S)-4-fluoro-4-(3-(trifluoromethyl)phenylsulfonyl)cyclohexyl)-2-(trifluoromethyl)pyrimidine-5-carboxamide] | 1720 | 7.18 | > 10
5 | CS(=O)(=O)c1cc(Cl)ccc1C(=O)N[C@H]1CC[C@@](F)(S(=O)(=O)c2cccc(C(F)(F)F)c2)CC1 [Compound 262, 4-chloro-N-((1S,4S)-4-fluoro-4-(3-(trifluoromethyl)phenylsulfonyl)cyclohexyl)-2-(methylsulfonyl)benzamide] | 250 | 1.47 | 2.89
6 | CS(=O)(=O)c1ccc(C(=O)N[C@H]2CC[C@@](F)(S(=O)(=O)c3cccc(C(F)(F)F)c3)CC2)c(Cl)c1 [Compound 263, 2-chloro-N-((1S,4S)-4-fluoro-4-(3-(trifluoromethyl)phenylsulfonyl)cyclohexyl)-4-(methylsulfonyl)benzamide] | 2510 | 1.36 | 2.23
7 | O=C(N[C@H]1CC[C@@](F)(S(=O)(=O)c2cccc(C(F)(F)F)c2)CC1)c1cn2cc(C(F)(F)F)ccc2n1 [Compound 264, N-((1S,4S)-4-fluoro-4-(3-(trifluoromethyl)phenylsulfonyl)cyclohexyl)-6-(trifluoromethyl)imidazo[1,2-a]pyridine-2-carboxamide] | 470 | > 10 | 4.48
8 | COc1cc(Cl)ccc1C(=O)N[C@H]1CC[C@@](F)(S(=O)(=O)c2cccc(C(F)(F)F)c2)CC1 [Compound 265, 4-chloro-N-((1S,4S)-4-fluoro-4-(3-(trifluoromethyl)phenylsulfonyl)cyclohexyl)-2-methoxybenzamide] | 260 | > 10 | > 10
9 | O=C(N[C@H]1CC[C@@](F)(S(=O)(=O)c2cccc(C(F)(F)F)c2)CC1)c1cc2cnccc2nc1C(F)(F)F [Compound 266, N-((1S,4S)-4-fluoro-4-(3-(trifluoromethyl)phenylsulfonyl)cyclohexyl)-2-(trifluoromethyl)-1,6-naphthyridine-3-carbosamide] | 2440 | 5.56 | 3.67
10 | O=C(N[C@H]1CC[C@@](F)(S(=O)(=O)c2cccc(C(F)(F)F)c2)CC1)c1cnccc1C(F)(F)F [Compound 267] | 790 | 0.49 | 2.63
11 | O=C(N[C@H]1CC[C@@](F)(S(=O)(=O)c2cccc(C(F)(F)F)c2)CC1)c1ccnc(C(F)(F)F)n1 [Compound 268, N-((1S,4S)-4-fluoro-4-(3-(trifluoromethyl)phenylsulfonyl)cyclohexyl)-2-(trifluoromethyl)pyrimidine-4-carboxamide] | 30 | 1.91 | > 10
12 | O=C(N[C@H]1CC[C@@](F)(S(=O)(=O)c2cccc(C(F)(F)F)c2)CC1)c1ccc(Cl)c(Cl)c1 [Compound 269, 3,4-dichloro-N-((1S,4S)-4-fluoro-4-(3-(trifluoromethyl)phenylsulfonyl)cyclohexyl)benzamide] | 190 | > 10 | > 10
13 | O=C(N[C@H]1CC[C@@](F)(S(=O)(=O)c2cccc(C(F)(F)F)c2)CC1)c1ccc(Cl)cc1Cl [Compound 270, 2,4-dichloro-N-((1S,4S)-4-fluoro-4-(3-(trifluoromethyl)phenylsulfonyl)cyclohexyl) benzamide] | 210 | 3.58 | 2.54
14 | CS(=O)(=O)c1ccc(C(=O)N[C@H]2CC[C@@](F)(S(=O)(=O)c3cccc(C(F)(F)F)c3)CC2)cc1 [Compound 271, N-((1S,4S)-4-fluoro-4-(3-(trifluoromethyl)phenylsulfonyl)cyclohexyl)-4-(methylsulfonyl)benzamide] | 8160 | 1.65 | 2.63
15 | CS(=O)(=O)c1cc(C(=O)N[C@H]2CC[C@@](F)(S(=O)(=O)c3cccc(C(F)(F)F)c3)CC2)cc(C(F)(F)F)n1 [Compound 273, N-((1R,4R)-4-fluoro-4-(3-(trifluoromethyl)phenylsulfonyl)cyclohexyl)-2-(methylsulfonyl)-6-(trifluoromethyl)isonicotinamide] | 430 | > 10 | > 10
16 | O=C(CCC(F)(F)F)N[C@H]1CC[C@@](F)(S(=O)(=O)c2cccc(C(F)(F)F)c2)CC1 [Compound 274, 4,4,4-trifluoro-N-((1S,4S)-4-fluoro-4-(3-(trifluoromethyl)phenylsulfonyl)cyclohexyl)butanamide] | 530 | 1.05 | 2.54
17 | O=C(N[C@H]1CC[C@@](F)(S(=O)(=O)c2cccc(C(F)(F)F)c2)CC1)C1(C(F)(F)F)CC1 [Compound 275, N-((1S,4S)-4-fluoro-4-(3-(trifluoromethyl)phenylsulfonyl)cyclohexyl)-1-(trifluoromethyl) cyclopropaneCarboxamide] | 700 | > 10 | > 10
18 | COc1ccc(C2(C(=O)N[C@H]3CC[C@@](F)(S(=O)(=O)c4cccc(C(F)(F)F)c4)CC3)CC2)cc1 [Compound 276, N-((1S,4S)-4-fluoro-4-(3-(trifluoromethyl)phenylsulfonyl)cyclohexyl)-1-(4-methoxyphenyl) cyclopropanecarboxamide] | 380 | 2.3 | > 10
19 | O=C(N[C@H]1CC[C@@](F)(S(=O)(=O)c2cccc(C(F)(F)F)c2)CC1)C1CCCC1 [Compound 277, N-((1S,4S)-4-fluoro-4-(3-(trifluoromethyl)phenylsulfonyl)cyclohexyl) cyclopentanecarboxamide] | 470 | 0.54 | 2.46
20 | CC(C)(C)CC(=O)N[C@H]1CC[C@@](F)(S(=O)(=O)c2cccc(C(F)(F)F)c2)CC1 [Compound 278, N-((1S,4S)-4-fluoro-4-(3-(trifluoromethyl)phenylsulfonyl)cyclohexyl)-3,3-dimethylbutanamide] | 280 | 2.23 | 2.48
21 | O=C(N[C@H]1CC[C@@](F)(S(=O)(=O)c2cccc(C(F)(F)F)c2)CC1)C1Cc2ccccc2N1 (stereo partly drawn) [Compound 279, N-((1S,4S)-4-fluoro-4-(3-(trifluoromethyl)phenylsulfonyl)cyclohexyl) indoline-2-carboxamide] | 450 | 2.09 | > 10
22 | CC(C)S(=O)(=O)c1cc(C(F)(F)F)cnc1C(=O)N[C@H]1CC[C@@](F)(S(=O)(=O)c2cccc(C(F)(F)F)c2)CC1 [Compound 281, N-((1S,4S)-4-fluoro-4-(3-(trifluoromethyl)phenylsulfonyl)cyclohexyl)-3-(isopropylsulfonyl)-5-(trifluoromethyl)picolinamide] | 30 | 1.46 | 8.53
23 | O=C(N[C@H]1CC[C@@](F)(S(=O)(=O)c2cccc(C(F)(F)F)c2)CC1)[C@@H]1C[C@@H](c2ccccc2)CN1 [Compound 285, (2S,4S)-N-((1S,4R)-4-fluoro-4-(3-(trifluoromethyl)phenylsulfonyl)cyclohexyl)-4-phenylpyrrolidine-2-carboxamide] | 360 | 1.28 | > 10
24 | O=C(N[C@H]1CC[C@@](F)(S(=O)(=O)c2cccc(C(F)(F)F)c2)CC1)[C@@H]1C[C@H](c2ccccc2)CN1 [Compound 286, (2S,4R)-N-((1S,4R)-4-fluoro-4-(3-(trifluoromethyl)phenylsulfonyl)cyclohexyl)-4-phenylpyrrolidine-2-carboxamide] | 390 | 1.54 | 3.19
25 | O=C(N[C@H]1CC[C@@](F)(S(=O)(=O)c2cccc(C(F)(F)F)c2)CC1)[C@@H]1C[C@@H](Cc2ccc(F)cc2)CN1 [Compound 287, (2S,4R)-N-((1S,4R)-4-fluoro-4-(3-(trifluoromethyl)phenylsulfonyl)cyclohexyl)-4-(4-fluorobenzyl)pyrrolidine-2-carboxamide] | 310 | 1.13 | 6.5
26 | O=C(N[C@H]1CC[C@@](F)(S(=O)(=O)c2cccc(C(F)(F)F)c2)CC1)[C@H]1CC[C@@H](c2ccccc2)N1 [Compound 288, (2R,5S)-N-((1S,4S)-4-fluoro-4-(3-(trifluoromethyl)phenylsulfonyl)cyclohexyl)-5-phenylpyrrolidine-2-carboxamide] | 640 | 3.26 | > 10
27 | O=C(N[C@H]1CC[C@@](F)(S(=O)(=O)c2cccc(C(F)(F)F)c2)CC1)[C@@H]1CC[C@H](c2ccccc2)N1 [Compound 289] | 540 | 1.04 | 1.4
